Tested on: alternative splicing of host transcripts in HeLa rtTA HIV∆Mls cells
Assay: RT-PCR of host alternative splicing events (PSI), capillary electrophoresis
Assay type: cell-based
Method: To assess the effect of compounds on expression/alternative splicing of cellular RNA, two approaches were used. For both, total RNA was prepared from DMSO or compound-treated cells. In the first assay, samples were assayed by medium throughput RT-PCR to determine the inclusion levels of alternatively spliced exons and splice sites located in 73 selected events. 73 primer sets containing a fluorescently (5-FAM) labeled primer for each, were used in RT-PCR. PCR products generated were denatured in formamide and quantified using ABI Prism capillary sequencer (Life Technologies). The fragment analysis was performed on the PeakScanner software (Life Technologies) in batch mode and automated using custom scripts written in Python. The inclusion level of each exon was calculated as the amount of transcripts carrying the alternative exon relative to the total amount of all transcripts detected in the PCR reaction and results are summarized for compound-treatment in comparison to DMSO treatment. In the second assay, extracted RNA was processed using the Illumina TruSeq RNA Sample Preparation Kit (Illumina) according to the manufacturer’s instructions. The cDNA library generated was validated (passed quality control on a Bioanalyzer 1000 DNA chip (Agilent)), normalized and pooled for cluster generation. cDNA libraries were sequenced on the Illumina HiSeq 2500 (paired-end, 125 bp) with version 4 chemistry following manufacturer’s protocols. The full human genome and transcriptomic sequences were downloaded from the UCSC Genome Browser (genome.ucsc.edu) database and Ensembl (www.ensembl.org), respectively, as described by Irimia et al.. Exon annotations and genomic coordinates for alternative splicing (AS) analysis were derived from tables downloaded from the UCSC Genome Browser database. To determine gene expression (GE) or alternative splicing (AS) changes in an unbiased way, the effective number of unique mappable positions in each transcript (i.e. the effective length) was determined by aligning sequences with unique transcriptomic alignment to the human genome using Bowtie. Reads with one unique genomic alignment were then aligned against the canonical transcriptome and, for each transcript, the number of reads with one unique transcriptomic alignment were counted. The expression level of genes was quantified as corrected ‘reads per kilobase of exon model per million mapped reads’ (cRPKM), a widely used metric to estimate gene expression levels. The expression cutoff was 0.5 cRPKM, corresponding to the transcript of the gene being present if there were ≥10 reads that mapped uniquely to a single genomic locus. Approximately 19,847 Ensembl annotated protein-coding genes were compared to create a gene list of differentially expressed genes. Genes were considered differentially expressed if fold changes in cRPKM was ≥2 in compound-treated versus DMSO-treated samples.

[1] = of 70 AS events, 791 30 µM, 833 2 µM

O=C(NC(=S)NNC(=O)c1ccccc1O)c1ccc(-c2ccccc2)cc1 [Compound 833, N-([2-(2-hydroxybenzoyl)hydrazino]carbonothioyl}-4-biphenylcarboxamide]
DPSI AGPAT4_1 chr6:161506598-161506735 (5227833 minus DMSO, mean n=3): -3.33%
DPSI AGPAT4_1 chr6:161507269-161507439 (5227833 minus DMSO, mean n=3): -5.00%
DPSI APLP2_1 chr11:129498717-129498884 (5227833 minus DMSO, mean n=3): -2.67%
DPSI APP_1 chr21:26291546-26291602 (5227833 minus DMSO, mean n=3): -0.67%
DPSI APP_1 chr21:26294201-26294368 (5227833 minus DMSO, mean n=3): -0.67%
DPSI ATP6V0A1_1 chr17:37919833-37920004 (5227833 minus DMSO, mean n=3): 6.67%
DPSI CA12_1 chr15:61406400-61406485 (5227833 minus DMSO, mean n=3): 0.67%
DPSI CA12_1 chr15:61407349-61407382 (5227833 minus DMSO, mean n=3): -2.67%
DPSI CASP9_1 chr1:15703693-15703840* (5227833 minus DMSO, mean n=3): -1.33%
DPSI CAST_1 chr5:96090613-96090669 (5227833 minus DMSO, mean n=3): -3.33%
DPSI CLSTN1_1 chr1:9720143-9720199 (5227833 minus DMSO, mean n=3): -17.00%
DPSI CLSTN1_2 chr1:9739126-9739155 (5227833 minus DMSO, mean n=3): -4.67%
DPSI CRBN_1 chr3:3191846-3191950 (5227833 minus DMSO, mean n=3): 0.00%
DPSI CRBN_1 chr3:3191950-3191953 (5227833 minus DMSO, mean n=3): -2.00%
DPSI CTNND1_1 chr11:57318058-57318129 (5227833 minus DMSO, mean n=3): -6.67%
DPSI DNM1L_1 chr12:32782066-32782143 (5227833 minus DMSO, mean n=3): 7.67%
DPSI DNM1L_1 chr12:32782465-32782497 (5227833 minus DMSO, mean n=3): -4.33%
DPSI DRCTNNB1A_1 chr7:22953096-22953391 (5227833 minus DMSO, mean n=3): -8.33%
DPSI EIF4A2_1 chr7:187988792-187988899 (5227833 minus DMSO, mean n=3): -10.67%
DPSI EIF4A2_1 chr7:187988899-187988904 (5227833 minus DMSO, mean n=3): -7.67%
DPSI EIF4H_1 chr7:73242512-73242572 (5227833 minus DMSO, mean n=3): -5.00%
DPSI ERC1_1 chr12:1091641-1091725 (5227833 minus DMSO, mean n=3): -11.00%
DPSI EXOC7_1 chr17:71598005-71598035 (5227833 minus DMSO, mean n=3): -3.67%
DPSI EXOC7_1 chr17:71598819-71598911 (5227833 minus DMSO, mean n=3): -5.67%
DPSI FAM62B_1 chr7:158238233-158238295 (5227833 minus DMSO, mean n=3): -4.67%
DPSI FAM104A_1 chr17:68720412-68720474 (5227833 minus DMSO, mean n=3): -5.00%
DPSI FGFR1OP2_1 chr12:27004715-27004828 (5227833 minus DMSO, mean n=3): -20.67%
DPSI FIP1L1_1 chr4:53975538-53975646 (5227833 minus DMSO, mean n=3): -14.67%
DPSI GGCT_1 chr7:30504943-30505080 (5227833 minus DMSO, mean n=3): 3.00%
DPSI GGCT_1 chr7:30506676-30506822 (5227833 minus DMSO, mean n=3): -0.33%
DPSI GLK_1 chr2:39388587-39388650 (5227833 minus DMSO, mean n=3): -13.67%
DPSI GM130_1 chr9:130069293-130069374 (5227833 minus DMSO, mean n=3): -18.33%
DPSI GRB10_1 chr7:50651400-50651538 (5227833 minus DMSO, mean n=3): 0.67%
DPSI KIF13A_1 chr6:17879324-17879428 (5227833 minus DMSO, mean n=3): -0.33%
DPSI MACF1_1 chr1:39616720-39616782 (5227833 minus DMSO, mean n=3): 14.00%
DPSI MACF1_5 chr1:39719179-39719289 (5227833 minus DMSO, mean n=3): -18.33%
DPSI MAP3K7_1 chr6:91310992-91311072 (5227833 minus DMSO, mean n=3): 2.67%
DPSI MARK3_1 chr14:103034592-103034618 (5227833 minus DMSO, mean n=3): -9.00%
DPSI MARK3_1 chr14:103036246-103036290 (5227833 minus DMSO, mean n=3): -5.33%
DPSI MBD1_1 chr18:46054554-46054721 (5227833 minus DMSO, mean n=3): -3.33%
DPSI MBNL2_1 chr13:96807051-96807104 (5227833 minus DMSO, mean n=3): 17.33%
DPSI MFF_1 chr2:227901637-227901749 (5227833 minus DMSO, mean n=3): -11.67%
DPSI MRIP_1 chr17:17024646-17024708 (5227833 minus DMSO, mean n=3): -6.33%
DPSI MVK_1 chr12:108501990-108502134 (5227833 minus DMSO, mean n=3): 15.67%
DPSI MVK_1 chr12:108503583-108503738 (5227833 minus DMSO, mean n=3): 16.67%
DPSI NAP1L1_1 chr12:74747418-74747520 (5227833 minus DMSO, mean n=3): -15.67%
DPSI NAP1L1_1 chr12:74748956-74749041 (5227833 minus DMSO, mean n=3): -18.33%
DPSI NPHP3_1 chr3:133898264-133898347 (5227833 minus DMSO, mean n=3): -6.67%
DPSI PDCL_1 chr9:124628716-124628892 (5227833 minus DMSO, mean n=3): 3.67%
DPSI POLDIP3_1 chr22:41327919-41328006 (5227833 minus DMSO, mean n=3): -17.00%
DPSI POMT1_1 chr9:133368281-133368521 (5227833 minus DMSO, mean n=3): 4.67%
DPSI POMT1_1 chr9:133371321-133371428 (5227833 minus DMSO, mean n=3): -10.00%
DPSI RAI14_1 chr5:34849436-34849522 (5227833 minus DMSO, mean n=3): 2.33%
DPSI RAN_1 chr12:129923082-129923127 (5227833 minus DMSO, mean n=3): -2.00%
DPSI RPS24_1 chr10:79467729-79467746 (5227833 minus DMSO, mean n=3): 3.00%
DPSI SEC24B_1 chr4:110622281-110622386 (5227833 minus DMSO, mean n=3): -18.67%
DPSI SETD5_1 chr3:9453533-9453572 (5227833 minus DMSO, mean n=3): -3.33%
DPSI SMN2_1 chr5_h2_hap1:475625-475826 (5227833 minus DMSO, mean n=3): 2.33%
DPSI SMN2_2 chr5_h2_hap1:466192-466246 (5227833 minus DMSO, mean n=3): -7.33%
DPSI SPAG9_1 chr17:46408223-46408261 (5227833 minus DMSO, mean n=3): -12.00%
DPSI SRPK2_1 chr2:104553464-104553557 (5227833 minus DMSO, mean n=3): -9.00%
DPSI SRPK2_1 chr2:104553930-104554023 (5227833 minus DMSO, mean n=3): 5.67%
DPSI TPM1_1 chr15:61140450-61140525 (5227833 minus DMSO, mean n=3): 1.00%
DPSI TPM1_1 chr15:61140965-61141040 (5227833 minus DMSO, mean n=3): -1.00%
DPSI TRIM37_1 chr17:54433741-54433857 (5227833 minus DMSO, mean n=3): -6.67%
DPSI ZNF827_1 chr4:146903692-146903724 (5227833 minus DMSO, mean n=3): -17.67%
DPSI ZNF827_1 chr4:146905581-146905589 (5227833 minus DMSO, mean n=3): 0.00%
DPSI NUMB_2 chr14:72815742-72815885 (5227833 minus DMSO, mean n=3, table row r49): 3.67%
DPSI NUMB_2 chr14:72815742-72815885 (5227833 minus DMSO, mean n=3, table row r63): 6.33%
AS events with DPSI ≤ -10% [1]: 10
AS events with DPSI ≥ 10% [1]: 1
AS events with P ≤ 0.05 [1]: 22

From paper PMC5267425, “Identification of small molecule modulators of HIV-1 Tat and Rev protein accumulation” (Retrovirology, 2017)
